Source: patent publication US9388208B2, “Pyrrolo[1,2-f][1,2,4]triazines useful for treating respiratory syncitial virus infections” (Gilead Sciences, Inc., priority 2013, dated 2016)
Read-outs that look alike come from different tables or passages of the source.

Legend:
[1] = test system: HEp-2 cells; experiment: Cytotoxicity assay in HEp-2 cells; type: cell-based; conditions: uninfected HEp-2 cells, 4 days, CellTiter Glo
In short: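 Uninfected HEp-2 cells added to prediluted compound, incubated 4 days, viability read by CellTiter Glo luminescence. Untreated cells set 100% and 2 uM puromycin 0% viability; CC50 fitted by non-linear regression as concentration reducing viability by 50%.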

[2] = test system: RSV strain A2; experiment: Anti-RSV activity, infectious cytopathic cell protection assay in HEp-2 cells; type: cell-based, Respiratory Syncytial Virus (RSV)
In short: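 Near-confluent HEp-2 cells at 50,000/ml infected with titrated RSV A2 and dispensed onto 3-fold compound dilutions, then incubated 4 days at 37° C. Protection from virus-induced cytopathic effect read as CellTiter-Glo luminescence, normalized to 0% and 100% inhibition controls; EC50 by non-linear regression.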

[3] = test system: MT-4 cells; experiment: Cytotoxicity assay in MT-4 cells; type: cell-based; conditions: 5 days, Cell-Titer Glo
In short: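 Compounds in 3-fold serial dilution (26 nM to 530 μM, 100× concentrations in medium) incubated in quadruplicate with 2×10^3 MT-4 cells for 5 days at 37° C; viability by CellTiter-Glo luminescence. CC50 from 4-parameter fit (Top/Bottom fixed 100%/0%), mean±SD of 3 independent experiments.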

Compound	CC50 [1] [µM]	EC50 ([2]; human respiratory syncytial virus, HEp-2, 96 h) [µM]	CC50 [3] [µM]	EC50 ([2]; HEp-2 cells infected with RSV A2, 4 days, Cell TiterGlo, read-out: EC50) [µM]
CC(C)(C)C(=O)SCCOP(=O)(OCCSC(=O)C(C)(C)C)OC[C@@]1(C#N)O[C@@H](c2ccc3c(N)ncnn23)[C@H](O)[C@@H]1O [Example 10, S,S′-2,2′-((((2R,3S,4R,5S)-5-(4-aminopyrrolo[1,2-f][1,2,4]triazin-7-yl)-2-cyano-3,4-dihydroxytetrahydrofuran-2-yl)methoxy)phosphoryl)bis(oxy)bis(ethane-2,1-diyl)bis(2,2-dimethylpropanethioate)]	39	1	7.3	–
N#C[C@]1(CO)O[C@@H](c2ccc3c(N)ncnn23)[C@H](O)[C@@H]1O [Example 1, (2R,3S,4R,5S)-5-(4-aminopyrrolo[1,2-f][1,2,4]triazin-7-yl)-3,4-dihydroxy-2-(hydroxymethyl)tetrahydrofuran-2-carbonitrile]	> 50	–	> 53	7.3
